The source of these data is patent publication US8865623B2, “Herbicidally active cyclic diones and derivatives thereof, processes for their preparation, compositions, and method of controlling weeds” (Syngenta Limited, priority 2009, dated 2014).

What all share (assay type): in vivo
For test [1], the system named is Lolium perenne (LOLPE). Kind of test: Post-emergence herbicidal activity, glasshouse pot test. Conditions: Lolium perenne, 312 h, rate 250 g/ha, evaluated after 13 days, read-out: Post-emergence activity LOLPE (100=total damage to plant; 0=no damage to plant). In a few lines:
(§1)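 Seeds sown in standard soil in pots were sprayed 1 day after sowing (pre-emergence) or after 8 days' cultivation (post-emergence) with aqueous spray from acetone/water (50:50) formulation containing 0.5% Tween 20. Plants grew at 24/16° C day/night, 14 h light, 65% humidity, watered twice daily. Damage scored after 13 days, 0–100.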

Test [2] has as its system Echinochloa crus-galli (ECHCG). The test is described as above. The settings on record: Echinochloa crus-galli, 312 h, rate 250 g/ha, evaluated after 13 days, read-out: Post-emergence activity ECHCG (100=total damage to plant; 0=no damage to plant). The method in brief: as §1
For test [3], the system named is Avena fatua (AVEFA). Described as above. The settings on record: Avena fatua, 312 h, rate 250 g/ha, evaluated after 13 days, read-out: Post-emergence activity AVEFA (100=total damage to plant; 0=no damage to plant). The method in brief: as §1
Test [4] concerns Alopecurus myosuroides (ALOMY). Described as above. The settings on record: Alopecurus myosuroides, 312 h, rate 250 g/ha, evaluated after 13 days, read-out: Post-emergence activity ALOMY (100=total damage to plant; 0=no damage to plant). In a few lines:
as §1

Test [5] concerns Lolium perenne (LOLPE). Kind of test: Pre-emergence herbicidal activity, glasshouse pot test. Conditions: Lolium perenne, 312 h, Rate 250 g/ha, evaluated after 13 days, read-out: Pre-emergence activity LOLPE (100=total damage to plant; 0=no damage to plant). The method in brief:
as §1

Test [6] has as its system Echinochloa crus-galli (ECHCG). The description is as above. Conditions: Echinochloa crus-galli, 312 h, Rate 250 g/ha, evaluated after 13 days, read-out: Pre-emergence activity ECHCG (100=total damage to plant; 0=no damage to plant). The method in brief: as §1
Test [7] has as its system Avena fatua (AVEFA). Described as above. Conditions: Avena fatua, 312 h, Rate 250 g/ha, evaluated after 13 days, read-out: Pre-emergence activity AVEFA (100=total damage to plant; 0=no damage to plant). In a few lines:
as §1

Test [8] relates to Alopecurus myosuroides (ALOMY). Described as above. The settings on record: Alopecurus myosuroides, 312 h, Rate 250 g/ha, evaluated after 13 days, read-out: Pre-emergence activity ALOMY (100=total damage to plant; 0=no damage to plant). The method in brief: as §1

For the molecule `CCc1ccc(Oc2ccc(Cl)c(F)c2)cc1C1=C(O)[C@@H]2CC[C@](C)(C1=O)C2(C)C` (single isomer, unassigned) [Example A-93], the pest or weed control at 250 g/ha in test [1] (glasshouse) came out at 20%; in test [2] (glasshouse), 50%; in test [3] (glasshouse) it was 20%; in test [4] (glasshouse), 60%; in test [5] (pre-emergence spray), 90%; in test [6] (pre-emergence spray), 100%. Besides, the pest or weed control at 250 g/ha in test [7] (pre-emergence spray) and in test [8] (pre-emergence spray) was 60% throughout.

Regarding `CCc1ccc(Oc2ccc(Cl)cc2)cc1C1=C(O)CC2(CCOCC2)CC1=O` [Example A-36], the pest or weed control at 250 g/ha in test [1] (glasshouse) turned out to be 90%; in test [2] (glasshouse) it was 100%; in test [3] (glasshouse), 100%; in test [4] (glasshouse) it was 100%; in test [5] (pre-emergence spray) it was 90%; in test [6] (pre-emergence spray), 100%. The pest or weed control at 250 g/ha in test [7] (pre-emergence spray) and in test [8] (pre-emergence spray) was 90% each time.

On to `CCc1ccc(Oc2cc(Cl)ncn2)cc1C1=C(O)C(C)(C)OC(C)(C)C1=O` [Example A-98], for which the pest or weed control at 250 g/ha in test [1] (glasshouse) turned out to be 30%; in test [2] (glasshouse) it was 100%; in test [3] (glasshouse), 60%; in test [4] (glasshouse) it was 70%; in test [5] (pre-emergence spray), 60%; in test [6] (pre-emergence spray), 80%. The figures for the pest or weed control at 250 g/ha in test [7] (pre-emergence spray) and in test [8] (pre-emergence spray) were 20% and 40%, respectively.

As for `CCc1ccc(Oc2ncc(Cl)cc2Cl)cc1C1=C(O)[C@H]2CC[C@H](C2)C1=O` [Example A-336], the pest or weed control at 250 g/ha worked out at 100% in test [1] (glasshouse); 100% in test [2] (glasshouse); 80% in test [3] (glasshouse); 90% in test [4] (glasshouse); 100% in test [5] (pre-emergence spray); 100% in test [6] (pre-emergence spray). Moreover, the values for the pest or weed control at 250 g/ha in test [7] (pre-emergence spray) and in test [8] (pre-emergence spray) were 80% and 90%, respectively.

Turning to `CCc1ccc(Oc2cccc(C(F)(F)F)c2)cc1C1=C(O)C(C)(C)OC(C)(C)C1=O` [Example A-185], the pest or weed control at 250 g/ha came out at 30% in test [1] (glasshouse); 70% in test [2] (glasshouse); 20% in test [3] (glasshouse); 20% in test [4] (glasshouse); 0% in test [5] (pre-emergence spray); 30% in test [6] (pre-emergence spray). Moreover, the pest or weed control at 250 g/ha in test [7] (pre-emergence spray) and in test [8] (pre-emergence spray) was 0% each time.

As for `CCc1ccc(Oc2ccc([N+](=O)[O-])cc2Cl)cc1C1=C(O)C(C)(C)OC(C)(C)C1=O` [Example A-201], the pest or weed control at 250 g/ha in test [1] (glasshouse) was 70%; in test [2] (glasshouse), 100%; in test [3] (glasshouse), 60%; in test [4] (glasshouse), 60%; in test [5] (pre-emergence spray), 30%; in test [6] (pre-emergence spray), 60%. For the same molecule, the pest or weed control at 250 g/ha in test [7] (pre-emergence spray) was 0%; in test [8] (pre-emergence spray), 10%.

Take `CCc1ccc(Oc2nc3cc(Cl)ccc3s2)cc1C1=C(O)CC2(CCOCC2)CC1=O` [Example A-308]: the pest or weed control at 250 g/ha in test [1] (glasshouse) was 100%; in test [2] (glasshouse) it was 100%; in test [3] (glasshouse), 100%; in test [4] (glasshouse), 90%; in test [5] (pre-emergence spray), 70%; in test [6] (pre-emergence spray) it was 100%. Also, the pest or weed control at 250 g/ha was determined as 80% in test [7] (pre-emergence spray) and 90% in test [8] (pre-emergence spray).

For `CCc1ccc(Oc2ccc(Br)cc2)cc1C1=C(O)CC(C)(C)CC1=O` [Example A-48], the pest or weed control at 250 g/ha in test [1] (glasshouse) is 70%; in test [2] (glasshouse), 100%; in test [3] (glasshouse) it was 40%; in test [4] (glasshouse), 80%; in test [5] (pre-emergence spray) it was 70%; in test [6] (pre-emergence spray), 100%. For the same molecule, the pest or weed control at 250 g/ha in test [7] (pre-emergence spray) came to 30%; in test [8] (pre-emergence spray) it was 100%.

As to `CCc1ccc(Oc2ccc(Cl)cc2Cl)cc1C1=C(O)C(C)(C)OC(C)(C)C1=O` [Example A-19], the pest or weed control at 250 g/ha in test [1] (glasshouse) was 90%; in test [2] (glasshouse), 100%; in test [3] (glasshouse) it was 60%; in test [4] (glasshouse), 60%; in test [5] (pre-emergence spray) it was 80%; in test [6] (pre-emergence spray), 100%. In addition, the figures for the pest or weed control at 250 g/ha in test [7] (pre-emergence spray) and in test [8] (pre-emergence spray) were 70% and 50%, respectively.

In the case of `CCc1ccc(Oc2ccc(Cl)cc2[N+](=O)[O-])cc1C1=C(O)C(C)(C)OC(C)(C)C1=O` [Example A-226], the pest or weed control at 250 g/ha worked out at 60% in test [1] (glasshouse); 100% in test [2] (glasshouse); 60% in test [3] (glasshouse); 60% in test [4] (glasshouse); 30% in test [5] (pre-emergence spray); 60% in test [6] (pre-emergence spray). Also, the values for the pest or weed control at 250 g/ha in test [7] (pre-emergence spray) and in test [8] (pre-emergence spray) were 10% and 0%, respectively.

Take `CCc1ccc(Oc2ncc(Cl)cc2C(F)(F)F)cc1C1=C(O)C(C)(C)OC(C)(C)C1=O` [Example A-143]: the pest or weed control at 250 g/ha amounted to 100% in test [1] (glasshouse); 100% in test [2] (glasshouse); 100% in test [3] (glasshouse); 100% in test [4] (glasshouse); 70% in test [5] (pre-emergence spray); 100% in test [6] (pre-emergence spray). Besides, the pest or weed control at 250 g/ha in test [7] (pre-emergence spray) was 40%; in test [8] (pre-emergence spray), 60%.

Regarding `CCc1ccc(Oc2ccc(C(F)(F)F)cc2Br)cc1C1=C(O)CC(C)(C)CC1=O` [Example A-282], the pest or weed control at 250 g/ha in test [1] (glasshouse) turned out to be 40%; in test [2] (glasshouse) it was 100%; in test [3] (glasshouse), 60%; in test [4] (glasshouse), 70%; in test [5] (pre-emergence spray), 60%; in test [6] (pre-emergence spray), 100%. The pest or weed control at 250 g/ha in test [7] (pre-emergence spray) and in test [8] (pre-emergence spray) was 10% throughout.

With `CC1(C)OC(C)(C)C(O)=C(c2cc(Oc3ccc(Br)cc3Cl)ccc2C2CC2)C1=O` [Example A-352], the pest or weed control at 250 g/ha in test [1] came out at 90%; in test [2], 100%; in test [3] it was 70%; in test [4], 90%; in test [5] (pre-emergence), 90%; in test [6] (pre-emergence) it was 100%. Also, the pest or weed control at 250 g/ha was determined as 20% in test [7] (pre-emergence) and 70% in test [8] (pre-emergence).

In the case of `CCc1ccc(Oc2cccc(F)c2)cc1C1=C(O)C(C)(C)OC(C)(C)C1=O` [Example A-58], the pest or weed control at 250 g/ha in test [1] (glasshouse) amounted to 0%; in test [2] (glasshouse), 80%; in test [3] (glasshouse), 0%; in test [4] (glasshouse), 0%; in test [5] (pre-emergence spray) it was 0%; in test [6] (pre-emergence spray), 70%. In addition, the pest or weed control at 250 g/ha in test [7] (pre-emergence spray) and in test [8] (pre-emergence spray) was 0% in each case.

For the molecule `CCc1ccc(Oc2ccc(C(F)(F)F)cc2[N+](=O)[O-])cc1C1=C(O)C(C)(C)OC(C)(C)C1=O` [Example A-203], the pest or weed control at 250 g/ha is 90% in test [1] (glasshouse); 90% in test [2] (glasshouse); 100% in test [3] (glasshouse); 90% in test [4] (glasshouse); 90% in test [5] (pre-emergence spray); 50% in test [6] (pre-emergence spray). Besides, the pest or weed control at 250 g/ha stood at 30% in test [7] (pre-emergence spray) and 20% in test [8] (pre-emergence spray).
